From ChEMBL document CHEMBL4804284

Assays:
Parameters in all cases: scale not given: the % may be the effect or the level left
[1] = molecular target: Dual specificity protein kinase CLK4 (Homo sapiens) (UniProt Q9HAZ1); assay: Inhibition of DNA-tagged human CLK4 assessed as percent of control at 50000 nM by qPCR analysis relative to control
[2] = molecular target: SRSF protein kinase 2 (Homo sapiens) (UniProt P78362); assay: Inhibition of DNA-tagged human SRPK2 assessed as percent of control at 50000 nM by qPCR analysis relative to control
[3] = molecular target: Cyclin-dependent kinase 17 (Homo sapiens) (UniProt Q00537); assay: Inhibition of DNA-tagged human PCTK2 assessed as percent of control at 50000 nM by qPCR analysis relative to control
[4] = molecular target: Serine/threonine-protein kinase MARK1 (Homo sapiens) (UniProt Q9P0L2); assay: Inhibition of DNA-tagged human MARK1 assessed as percent of control at 50000 nM by qPCR analysis relative to control
[5] = molecular target: CDK4/Cyclin D3 (Homo sapiens) (UniProt P11802+P30281); assay: Inhibition of DNA-tagged human CDK4/cyclin D3 assessed as percent of control at 50000 nM by qPCR analysis relative to control; format: protein-complex assay
[6] = molecular target: Ephrin type-B receptor 1 (Homo sapiens) (UniProt P54762); assay: Inhibition of DNA-tagged human EPHB1 assessed as percent of control at 50000 nM by qPCR analysis relative to control
[7] = molecular target: Serine/threonine-protein kinase 3 (Homo sapiens) (UniProt Q13188); assay: Inhibition of DNA-tagged human MST2 assessed as percent of control at 50000 nM by qPCR analysis relative to control
[8] = molecular target: Serine/threonine-protein kinase PknB (Mycobacterium tuberculosis) (UniProt P9WI81); assay: Inhibition of DNA-tagged Mycobacterium tuberculosis PKNB assessed as percent of control at 50000 nM by qPCR analysis relative to control
[9] = molecular target: Serine/threonine-protein kinase Nek3 (Homo sapiens) (UniProt P51956); assay: Inhibition of DNA-tagged human NEK3 assessed as percent of control at 50000 nM by qPCR analysis relative to control
[10] = molecular target: Epithelial discoidin domain-containing receptor 1 (Homo sapiens) (UniProt Q08345); assay: Inhibition of DNA-tagged human DDR1 assessed as percent of control at 50000 nM by qPCR analysis relative to control
[11] = system: Mast/stem cell growth factor receptor Kit (Homo sapiens), P10721 [A829P]; assay: Inhibition of DNA-tagged human KIT A829P mutant assessed as percent of control at 50000 nM by qPCR analysis relative to control
[12] = molecular target: Bone morphogenetic protein receptor type-1A (Homo sapiens) (UniProt P36894); assay: Inhibition of DNA-tagged human BMPR1A assessed as percent of control at 50000 nM by qPCR analysis relative to control
[13] = molecular target: Tyrosine-protein kinase Fyn (Homo sapiens) (UniProt P06241); assay: Inhibition of DNA-tagged human FYN assessed as percent of control at 50000 nM by qPCR analysis relative to control
[14] = molecular target: Atypical kinase COQ8B, mitochondrial (Homo sapiens) (UniProt Q96D53); assay: Inhibition of DNA-tagged human ADCK4 assessed as percent of control at 50000 nM by qPCR analysis relative to control
[15] = molecular target: Serine/threonine-protein kinase D1 (Homo sapiens) (UniProt Q15139); assay: Inhibition of DNA-tagged human PRKD1 assessed as percent of control at 50000 nM by qPCR analysis relative to control
[16] = molecular target: Proto-oncogene tyrosine-protein kinase Src (Homo sapiens) (UniProt P12931); assay: Inhibition of DNA-tagged human SRC assessed as percent of control at 50000 nM by qPCR analysis relative to control
[17] = molecular target: Myosin light chain kinase 2, skeletal/cardiac muscle (Homo sapiens) (UniProt Q9H1R3); assay: Inhibition of DNA-tagged human MYLK2 assessed as percent of control at 50000 nM by qPCR analysis relative to control
[18] = molecular target: Ephrin type-A receptor 8 (Homo sapiens) (UniProt P29322); assay: Inhibition of DNA-tagged human EPHA8 assessed as percent of control at 50000 nM by qPCR analysis relative to control
[19] = molecular target: Tyrosine-protein kinase JAK2 (Homo sapiens) (UniProt O60674); assay: Inhibition of DNA-tagged human JAK2 JH1 catalytic domain assessed as percent of control at 50000 nM by qPCR analysis relative to control
[20] = molecular target: Mitogen-activated protein kinase kinase kinase kinase 1 (Homo sapiens) (UniProt Q92918); assay: Inhibition of DNA-tagged human HPK1 assessed as percent of control at 50000 nM by qPCR analysis relative to control
[21] = molecular target: Peripheral plasma membrane protein CASK (Homo sapiens) (UniProt O14936); assay: Inhibition of DNA-tagged human CASK assessed as percent of control at 50000 nM by qPCR analysis relative to control
[22] = molecular target: MAP/microtubule affinity-regulating kinase 4 (Homo sapiens) (UniProt Q96L34); assay: Inhibition of DNA-tagged human MARK4 assessed as percent of control at 50000 nM by qPCR analysis relative to control
[23] = molecular target: Tyrosine-protein kinase Lck (Homo sapiens) (UniProt P06239); assay: Inhibition of DNA-tagged human LCK assessed as percent of control at 50000 nM by qPCR analysis relative to control
[24] = molecular target: Microtubule-associated serine/threonine-protein kinase 1 (Homo sapiens) (UniProt Q9Y2H9); assay: Inhibition of DNA-tagged human MAST1 assessed as percent of control at 50000 nM by qPCR analysis relative to control
[25] = molecular target: Serine/threonine-protein kinase Nek7 (Homo sapiens) (UniProt Q8TDX7); assay: Inhibition of DNA-tagged human NEK7 assessed as percent of control at 50000 nM by qPCR analysis relative to control
[26] = molecular target: SRSF protein kinase 1 (Homo sapiens) (UniProt Q96SB4); assay: Inhibition of DNA-tagged human SRPK1 assessed as percent of control at 50000 nM by qPCR analysis relative to control
[27] = molecular target: Protein kinase C theta type (Homo sapiens) (UniProt Q04759); assay: Inhibition of DNA-tagged human PRKCQ assessed as percent of control at 50000 nM by qPCR analysis relative to control
[28] = molecular target: Ribosomal protein S6 kinase alpha-2 (Homo sapiens) (UniProt Q15349); assay: Inhibition of DNA-tagged human C-terminal RSK3 kinase domain 2 assessed as percent of control at 50000 nM by qPCR analysis relative to control
[29] = molecular target: Mitogen-activated protein kinase kinase kinase 5 (Homo sapiens) (UniProt Q99683); assay: Inhibition of DNA-tagged human ASK1 assessed as percent of control at 50000 nM by qPCR analysis relative to control
[30] = system: Tyrosine-protein kinase ABL1 (Homo sapiens), P00519 [Q252H]; assay: Inhibition of DNA-tagged phosphorylated human ABL1 Q252H mutant assessed as percent of control at 50000 nM by qPCR analysis relative to control

Sequence of Mitogen-activated protein kinase kinase kinase 5 (Homo sapiens) (Q99683 whole entry): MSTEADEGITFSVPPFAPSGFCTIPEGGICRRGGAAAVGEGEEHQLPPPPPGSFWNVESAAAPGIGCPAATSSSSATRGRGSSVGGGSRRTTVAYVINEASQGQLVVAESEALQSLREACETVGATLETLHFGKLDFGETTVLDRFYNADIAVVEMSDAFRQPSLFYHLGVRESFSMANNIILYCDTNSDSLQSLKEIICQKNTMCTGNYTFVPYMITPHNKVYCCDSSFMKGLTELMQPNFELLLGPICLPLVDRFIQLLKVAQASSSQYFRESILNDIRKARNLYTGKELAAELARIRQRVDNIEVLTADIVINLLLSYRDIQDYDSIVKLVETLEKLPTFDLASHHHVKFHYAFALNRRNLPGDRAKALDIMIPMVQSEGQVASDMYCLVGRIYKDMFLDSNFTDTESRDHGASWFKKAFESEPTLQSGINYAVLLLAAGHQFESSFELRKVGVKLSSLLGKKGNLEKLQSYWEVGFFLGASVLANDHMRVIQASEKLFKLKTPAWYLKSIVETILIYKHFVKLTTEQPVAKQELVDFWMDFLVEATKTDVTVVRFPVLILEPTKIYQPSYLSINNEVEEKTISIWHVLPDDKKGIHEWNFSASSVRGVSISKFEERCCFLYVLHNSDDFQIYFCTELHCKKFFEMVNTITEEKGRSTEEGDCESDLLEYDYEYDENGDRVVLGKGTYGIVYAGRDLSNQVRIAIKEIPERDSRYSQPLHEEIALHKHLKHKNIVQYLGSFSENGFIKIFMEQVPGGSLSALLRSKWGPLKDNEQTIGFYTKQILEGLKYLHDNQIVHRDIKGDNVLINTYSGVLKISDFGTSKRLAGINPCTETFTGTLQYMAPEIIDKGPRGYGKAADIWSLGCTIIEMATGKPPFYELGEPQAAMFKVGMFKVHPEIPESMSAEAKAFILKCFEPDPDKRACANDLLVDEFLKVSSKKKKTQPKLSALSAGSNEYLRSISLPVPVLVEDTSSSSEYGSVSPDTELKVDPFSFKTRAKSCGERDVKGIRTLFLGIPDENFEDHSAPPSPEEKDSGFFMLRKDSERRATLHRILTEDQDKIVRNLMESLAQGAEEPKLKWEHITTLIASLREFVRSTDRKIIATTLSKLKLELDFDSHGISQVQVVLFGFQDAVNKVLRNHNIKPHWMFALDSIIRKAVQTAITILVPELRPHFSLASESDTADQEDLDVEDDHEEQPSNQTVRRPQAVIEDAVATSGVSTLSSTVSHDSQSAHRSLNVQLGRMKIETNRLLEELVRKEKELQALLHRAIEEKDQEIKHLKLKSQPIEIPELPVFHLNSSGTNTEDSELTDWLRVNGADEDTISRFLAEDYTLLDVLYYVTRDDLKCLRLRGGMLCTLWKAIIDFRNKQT
Sequence of Microtubule-associated serine/threonine-protein kinase 1 (Homo sapiens) (Q9Y2H9 whole entry, looked up): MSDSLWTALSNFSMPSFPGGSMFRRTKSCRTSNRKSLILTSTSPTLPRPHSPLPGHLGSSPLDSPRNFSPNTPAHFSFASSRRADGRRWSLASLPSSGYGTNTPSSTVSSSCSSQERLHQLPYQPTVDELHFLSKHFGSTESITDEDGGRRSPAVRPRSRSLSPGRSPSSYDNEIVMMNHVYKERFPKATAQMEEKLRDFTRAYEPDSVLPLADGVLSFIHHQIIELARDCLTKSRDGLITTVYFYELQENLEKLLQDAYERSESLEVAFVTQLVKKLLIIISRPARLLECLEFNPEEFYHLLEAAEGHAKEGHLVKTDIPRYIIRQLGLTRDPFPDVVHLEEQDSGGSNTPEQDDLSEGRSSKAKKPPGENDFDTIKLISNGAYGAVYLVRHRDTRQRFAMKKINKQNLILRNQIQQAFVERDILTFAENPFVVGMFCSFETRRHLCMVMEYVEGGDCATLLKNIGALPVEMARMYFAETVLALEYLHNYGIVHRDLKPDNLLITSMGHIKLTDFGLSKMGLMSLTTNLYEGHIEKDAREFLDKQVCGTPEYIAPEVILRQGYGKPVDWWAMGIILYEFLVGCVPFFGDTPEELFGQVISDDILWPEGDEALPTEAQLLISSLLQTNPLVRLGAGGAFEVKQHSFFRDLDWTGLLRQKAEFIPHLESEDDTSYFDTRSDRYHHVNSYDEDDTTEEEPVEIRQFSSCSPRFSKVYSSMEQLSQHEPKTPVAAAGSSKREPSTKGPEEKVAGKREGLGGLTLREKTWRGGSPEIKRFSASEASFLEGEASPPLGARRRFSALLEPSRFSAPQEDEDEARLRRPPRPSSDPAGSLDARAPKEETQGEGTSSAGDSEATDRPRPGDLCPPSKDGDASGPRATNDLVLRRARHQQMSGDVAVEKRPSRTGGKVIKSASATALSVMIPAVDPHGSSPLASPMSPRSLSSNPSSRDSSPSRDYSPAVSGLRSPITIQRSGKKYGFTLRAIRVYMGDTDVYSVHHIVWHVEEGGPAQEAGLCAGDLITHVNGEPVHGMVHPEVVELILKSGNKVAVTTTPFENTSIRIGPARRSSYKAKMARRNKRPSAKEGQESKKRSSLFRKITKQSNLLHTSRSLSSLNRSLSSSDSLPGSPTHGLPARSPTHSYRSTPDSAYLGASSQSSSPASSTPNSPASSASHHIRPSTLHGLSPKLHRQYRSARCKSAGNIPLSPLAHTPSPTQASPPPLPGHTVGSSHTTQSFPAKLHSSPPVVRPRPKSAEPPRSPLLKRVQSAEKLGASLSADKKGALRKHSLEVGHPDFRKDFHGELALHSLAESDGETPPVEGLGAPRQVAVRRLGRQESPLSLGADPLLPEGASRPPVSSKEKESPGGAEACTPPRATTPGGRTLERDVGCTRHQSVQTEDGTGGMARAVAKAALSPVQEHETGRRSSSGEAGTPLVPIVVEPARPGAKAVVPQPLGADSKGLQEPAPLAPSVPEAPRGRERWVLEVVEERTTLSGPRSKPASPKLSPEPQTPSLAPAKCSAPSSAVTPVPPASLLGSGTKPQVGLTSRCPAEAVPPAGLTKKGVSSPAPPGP
Sequence of Tyrosine-protein kinase JAK2 (Homo sapiens) (O60674 whole entry, the tested form may be a part): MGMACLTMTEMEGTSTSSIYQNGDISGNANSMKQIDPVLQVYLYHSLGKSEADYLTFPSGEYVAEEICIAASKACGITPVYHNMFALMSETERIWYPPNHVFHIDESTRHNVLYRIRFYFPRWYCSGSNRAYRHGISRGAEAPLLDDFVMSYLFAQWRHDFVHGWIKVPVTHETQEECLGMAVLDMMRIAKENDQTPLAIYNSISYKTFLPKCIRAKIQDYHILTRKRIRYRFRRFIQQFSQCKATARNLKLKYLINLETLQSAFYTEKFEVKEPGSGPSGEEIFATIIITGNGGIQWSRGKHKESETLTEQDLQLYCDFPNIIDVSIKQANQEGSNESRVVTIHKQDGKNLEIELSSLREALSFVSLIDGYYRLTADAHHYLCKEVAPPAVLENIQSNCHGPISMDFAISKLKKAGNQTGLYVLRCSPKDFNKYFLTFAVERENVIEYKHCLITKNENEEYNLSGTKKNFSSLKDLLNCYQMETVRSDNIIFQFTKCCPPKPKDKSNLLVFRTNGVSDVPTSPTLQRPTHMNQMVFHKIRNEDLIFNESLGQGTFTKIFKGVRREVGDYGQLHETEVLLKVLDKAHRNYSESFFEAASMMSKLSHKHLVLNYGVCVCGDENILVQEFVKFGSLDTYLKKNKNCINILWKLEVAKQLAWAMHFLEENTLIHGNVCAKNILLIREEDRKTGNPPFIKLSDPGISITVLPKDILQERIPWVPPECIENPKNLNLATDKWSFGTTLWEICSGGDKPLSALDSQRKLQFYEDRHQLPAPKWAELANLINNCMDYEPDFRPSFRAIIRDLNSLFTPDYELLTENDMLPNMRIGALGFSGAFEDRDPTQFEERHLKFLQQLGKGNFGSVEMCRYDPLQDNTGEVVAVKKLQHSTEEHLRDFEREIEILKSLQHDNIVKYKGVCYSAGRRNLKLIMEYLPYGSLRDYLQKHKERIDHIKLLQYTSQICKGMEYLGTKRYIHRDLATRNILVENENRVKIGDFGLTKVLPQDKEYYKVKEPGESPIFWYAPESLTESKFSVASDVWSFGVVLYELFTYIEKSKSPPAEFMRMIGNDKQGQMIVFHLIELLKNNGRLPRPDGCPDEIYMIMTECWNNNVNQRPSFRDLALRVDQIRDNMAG
Sequence of Serine/threonine-protein kinase MARK1 (Homo sapiens) (Q9P0L2 whole entry, looked up): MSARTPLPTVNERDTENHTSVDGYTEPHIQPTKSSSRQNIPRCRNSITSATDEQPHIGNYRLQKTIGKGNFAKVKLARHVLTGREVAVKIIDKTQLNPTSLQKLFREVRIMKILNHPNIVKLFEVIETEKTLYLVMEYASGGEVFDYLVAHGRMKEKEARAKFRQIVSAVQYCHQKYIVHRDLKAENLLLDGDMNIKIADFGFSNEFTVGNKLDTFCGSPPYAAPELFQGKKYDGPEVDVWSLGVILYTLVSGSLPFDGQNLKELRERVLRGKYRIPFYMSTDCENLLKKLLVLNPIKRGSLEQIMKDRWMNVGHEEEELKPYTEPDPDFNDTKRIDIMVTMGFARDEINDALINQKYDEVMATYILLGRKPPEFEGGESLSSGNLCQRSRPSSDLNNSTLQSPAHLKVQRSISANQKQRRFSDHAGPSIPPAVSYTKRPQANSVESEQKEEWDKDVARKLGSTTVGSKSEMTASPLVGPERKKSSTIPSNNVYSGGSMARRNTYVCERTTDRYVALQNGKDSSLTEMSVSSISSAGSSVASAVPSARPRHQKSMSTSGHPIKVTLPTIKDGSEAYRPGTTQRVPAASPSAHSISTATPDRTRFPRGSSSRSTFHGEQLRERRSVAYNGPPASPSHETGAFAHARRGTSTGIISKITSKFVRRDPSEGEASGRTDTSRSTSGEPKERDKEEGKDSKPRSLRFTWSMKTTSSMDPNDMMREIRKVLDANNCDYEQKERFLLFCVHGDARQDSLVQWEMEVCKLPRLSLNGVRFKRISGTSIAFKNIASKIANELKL

## CN1C(=O)/C(=C2/C(=O)Nc3ccccc32)c2ccccc21
[1]
  Activity: 100%
[2]
  Activity: 100%
[3]
  Activity: 96%
[4]
  Activity: 92%
[5]
  Activity: 100%
[6]
  Activity: 97%
[7]
  Activity: 99%
[8]
  Activity: 100%
[9]
  Activity: 92%
[10]
  Activity: 84%
[11]
  Activity: 63%
[12]
  Activity: 100%
[13]
  Activity: 100%
[14]
  Activity: 78%
[15]
  Activity: 97%
[16]
  Activity: 100%
[17]
  Activity: 94%
[18]
  Activity: 94%
[19]
  Activity: 73%
[20]
  Activity: 93%
[21]
  Activity: 100%
[22]
  Activity: 77%
[23]
  Activity: 96%
[24]
  Activity: 85%
[25]
  Activity: 59%
[26]
  Activity: 100%
[27]
  Activity: 99%
[28]
  Activity: 92%
[29]
  Activity: 100%
[30]
  Activity: 100%
